# Measurements published in US11161839B2, “2-quinolone derived inhibitors of BCL6” (Cancer Research Technology Limited, priority 2017, dated 2021).
# Biological target: BCL6 (Homo sapiens (Human), UniProt P41182)
# Assay: assays described in the Examples section (not specified which)
# Settings: tested compounds outside desired/preferred activity
# Method: DC50 values (compound concentration at which 50% of endogenous BCL6 protein is degraded) were determined in SUDHL-4 cells (American Type Culture Collection) in an immunofluorescence-based assay using an InCell2200 high content imaging system (GE Healthcare). Briefly, 40 μL of lymphoma suspension cells cultured in RPMI 1640-10% FBS (Sigma-Aldrich or PAN Biotech UK Ltd) were platted on fibronectin (Sigma catalogue F1141)-coated 384 well Cell Carrier Ultra plate (Perkin Elmer catalogue 6057300) at 1.2 104 cells/well. After 20 hours cell culture at 37° C./C02 incubator, compounds were dispensed in the cell culture plate using ECHO550 acoustic dispenser (Labcyte, Inc.), as 8 point-concentration response (ranging from 5 nM to 10 μM) in 0.67% final DMSO concentration. Cells were incubated with compound for 2 hours at 37° C./C02 incubator followed by fixation in 4.5% formaldehyde (37% formaldehyde solution, Sigma catalogue F8775) at room temperature for 15 min. After fixing, cells were washed in 1×TBS (Tris Buffer Saline) using a Power Washer 384 (Tecan Group Ltd). Blocking and cell permeabilisation were performed by incubating the fixed cells for 1 hour at room temperature in 1×TBS, 5% BSA, 1% Triton X100, followed by three washes on PW384 plate washer. Primary and secondary antibodies were prepared in 1×TBS, 1% BSA, 0.2% Triton X100. BCL6 expression was detected by incubating the cells for 1 h30 with BCL6 rabbit polyclonal antibody (Sigma Catalogue HPA004899) at 1:250, 0.8 μg/ml, followed by 1 hour in chicken anti-Rabbit Alexa 488 conjugated antibody (Life Technology) at 1:500. After incubation in each antibody, cells were washes four times in 1×TBS-0.05% tween on PW384 plate washer. Cells were finally incubated for 60 min with nuclear staining RedDot2 dye (Biotium) at 0.5× the stock concentration in 1×TBS. BCL6 expression in the absence or presence of compound was detected on InCell2200 with 20× objective and quantified on InCell Analyser 3.7.2 workstation (GE Healthcare). The % response at each concentration was calculated by normalising BCL6 expression in the presence of compound to the appropriate high (DMSO) and low (DMSO with 7 μM CCT369260) controls.
# The volume of medium containing 2000 cells in the control well was calculated and this volume of cells was transferred from every well of the assay plates to the corresponding well of the fresh plates containing compound. After 14 days, CellTiter Glo reagent (Promega) was added to the medium in each well of the assay plate at a ratio of 1:2, mixed on a plate shaker, then incubated at room temperature for 10 minutes. Luminescence was measured using an Envision plate reader (Perkin Elmer) and the relative luminescence at each compound concentration, compared to DMSO alone, was calculated. IC50 were determined using a 4-parameter curve fit in Dotmatics (Bishops Stortford, UK).
row,activity in the assays described in the Examples section,SMILES
1,did not exhibit the desired activity,"Cn1c(=O)cc(NC2CCCNC2=O)c2cc(Nc3ccnc(Cl)c3C#N)ccc21 (centres unmarked) [2-chloro-4-((1-methyl-2-oxo-4-((2-oxopiperidin-3-yl)amino)-1,2-dihydroquinolin-6-yl)amino)nicotinonitrile]"
2,did not exhibit the desired activity,"CC(Nc1cc(=O)[nH]c2ccc(Nc3ccnc(Cl)c3C#N)cc12)c1cnn(C)c1 (centres unmarked) [2-chloro-4-((4-((1-(1-methyl-1H-pyrazol-4-yl)ethyl)amino)-2-oxo-1,2-dihydroquinolin-6-yl)amino)nicotinonitrile]"
3,not to exhibit the preferred activity,"CCNc1cc(=O)n(C)c2ccc(Nc3ccnc(Cl)c3C#N)nc12 [2-chloro-4-((8-(ethylamino)-5-methyl-6-oxo-5,6-dihydro-1,5-naphthyridin-2-yl)amino)nicotinonitrile]"
4,did not exhibit the desired activity,"CNC(=O)CNc1cc(=O)[nH]c2ccc(Nc3ccnc(Cl)c3C#N)cc12 [2-((6-((2-chloro-3-cyanopyridin-4-yl)amino)-2-oxo-1,2-dihydroquinolin-4-yl)amino)-N-methylacetamide]"
5,not to exhibit the preferred activity,Cn1c(=O)cc(NCc2ncccn2)c2cc(Nc3ccnc(Cl)c3C#N)ccc21 [2-chloro-4-[[1-methyl-2-oxo-4-(pyrimidin-2-ylmethylamino)-6-quinolyl]amino]pyridine-3-carbonitrile]
